Active and inactive are the calls of the source.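 Rule for the calls: active = fitted curve reaches a 40% rise in fluorescent cells at or below the top valid dose; inactive = opposite-direction effect, or the rest.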

The experiment in a line: autofluorescent compounds in non-GFP fibroblasts, dose response, artefact control for X-chromosome reactivation project, imaging, mTEFS fibroblasts, cherry-pick (AID 743396).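 Note: raw share of Hoechst-counted cells scored GFP positive without control normalization.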 The conditions noted are these: mTEFS fibroblasts autofluorescence, GFP-channel imaging, 3 days; at 19.5 µM (top of the series); cells pretreated with 5-aza-dC.
In the case of `Cc1cccc(-c2ccc([C@@H]3[C@@H](CO)N4CCCCN(S(=O)(=O)c5ccccc5F)C[C@H]34)cc2)c1`, the % fluorescent cells increase is 8.13% (inactive).
The result for `CC(C)CCN1CCN(Cc2cc3ccccc3[nH]2)CC1CCO` (stereo not given) reads 0% (inactive).
The result for `COc1ccccc1N=Nc1c(C)[nH]n(-c2ccccc2)c1=O` reads 0% (inactive); that for `Brc1ccc(-c2cn3ccccc3n2)cc1`, 0% (inactive).
Regarding `COc1cc(/C=C2\SC(=S)N(N3CCOCC3)C2=O)cc(OC)c1OC`, the % fluorescent cells increase is -0.007% (inactive).
With `COc1ccc(S(=O)(=O)N(C)C[C@H]2OCCCC[C@@H](C)Oc3ccc(NC(=O)NC(C)C)cc3C(=O)N([C@@H](C)CO)C[C@H]2C)cc1` the figure was 0.53% (inactive); with `CCc1ccccc1OCC(=O)Nc1ccc(N2CCCC2)cc1C`, 0.096% (inactive); with `O=C(N/N=C/c1ccc2cccnc2c1)c1nc2ccccc2c(=O)[nH]1`, 0.022% (inactive).
The result for `CCOC(=O)c1nn(-c2ccc3ccccc3c2)cc1O` reads 0.04% (inactive); that for `COc1ccc(-c2ccc(C#N)c(SCC(=O)NCc3ccco3)n2)cc1OC`, 0% (inactive).
The result for `CC(=O)N/C(N)=N/c1nc(=O)c2ccccc2s1` reads 0.24% (inactive); that for `CN(C)C(=O)C[C@@H]1C=C[C@H](NS(=O)(=O)c2ccccc2)[C@@H](CO)O1`, 0% (inactive).
Take `CC1C=NC(S(=O)(=O)N2CC[C@@H]3[C@@H](CO)N(C)c4ccc(-c5ccccc5)cc4[C@@H]32)=N1` (stereo not given in full): the % fluorescent cells increase is 0% (inactive).
The result for `Cc1cccc2sc(N(CCCN(C)C)C(=O)CN3C(=O)c4ccccc4C3=O)nc12` reads 0% (inactive); that for `O=c1[nH]nc(SCCS(=O)(=O)c2ccc(F)cc2)n1-c1ccccc1C(F)(F)F`, -0.004% (inactive).
With `C/C=C/c1ccc(C2[C@H]3CNC[C@@H]2N3Cc2cc(-c3ccccc3)on2)cc1` (stereo not given in full) the figure was -0.166% (inactive).
With `O=C(CC1C(=O)Nc2ccccc2N1CC(=O)N1CCCC1)Nc1ccc(Br)cc1` (stereo not given) the figure was 0% (inactive).
Consider `Nc1ccc(-c2nc3ccccc3[nH]2)cc1`, for which the % fluorescent cells increase is 0% (inactive).
With `CCOC(=O)Cn1c(=NC(=O)c2ccc([N+](=O)[O-])s2)sc2ccccc21` the figure was 12% (inactive).
The result for `COc1ccc(OC)c(NC(=O)Nc2ccc3[nH]ccc3c2)c1` reads 0% (inactive).
As for `CN1CCN(S(=O)(=O)c2ccc(C#N)cc2)C(c2ccccc2)C1` (stereo not given), the % fluorescent cells increase is 0% (inactive).
With `CC(C)N1CCc2c(sc(NC(=O)c3cc4cc([N+](=O)[O-])ccc4s3)c2C(N)=O)C1` the figure was 0% (inactive); with `C[C@H]1CN([C@@H](C)CO)C(=O)c2ccccc2-c2ccccc2CO[C@H]1CN(C)C(=O)[C@@H](Cc1ccccc1)N(C)C`, 0% (inactive).
In the case of `CS(=O)(=O)c1ccc(S(=O)CC(=O)OCc2ccccc2)c([N+](=O)[O-])c1` (stereo not given), the % fluorescent cells increase is 0% (inactive).
In the case of `O=C(NC1=NN(c2ccccc2)CC1)Nc1ccccc1F`, the % fluorescent cells increase is -0.002% (inactive).
Take `CCN(CC)S(=O)(=O)c1ccc(Cl)c(NC(=O)COC(=O)c2c(C)noc2C)c1`: the % fluorescent cells increase was 0.009% (inactive).
With `Cc1cccc(NC(=O)Cn2cnc3c(oc4nc5c(cc43)COC(C)(C)C5)c2=O)c1` the figure was 2.35% (inactive); with `CN(C1CCCCC1)S(=O)(=O)c1ccc(C(=O)N2CCN(c3nc4ccccc4s3)CC2)cc1`, -0.007% (inactive).
For `CC(=O)N(C)C[C@@H]1Oc2ncc(-c3cccnc3)cc2C(=O)N([C@@H](C)CO)C[C@@H]1C`, the % fluorescent cells increase was 0.097% (inactive).
Turning to `Cc1cc2c(NC(=O)Nc3ccc(C(C)(C)C)cc3)cccc2nn1`, the % fluorescent cells increase is 0.237% (inactive).
The result for `O=C(NNC(=O)c1ccccc1Cl)c1ccccc1Cl` reads 0.057% (inactive); that for `COc1cc(NS(=O)(=O)c2ccc3ccccc3c2)c2ncccc2c1`, 0% (inactive).
The result for `COc1cc(/C=C/c2ccc3cccc(O)c3n2)c(Br)cc1O` reads 0% (inactive).
Regarding `Cc1ccccc1C1c2[nH]c3ccccc3c2CCN1Cc1cccn1-c1ncccn1` (stereo not given), the % fluorescent cells increase was 0.002% (inactive).
On to `CCNC(=O)C[C@@H]1CC[C@H]2[C@@H](COC[C@@H](O)CN2C(=O)C2CCCC2)O1`, for which the % fluorescent cells increase is 0.746% (inactive).
The result for `COc1ccc(N=Nc2ccc(O)c(P(=O)(c3ccccc3)c3ccccc3)c2)cc1` reads 0% (inactive); that for `CCN1C(=O)C(=Cc2cccc(OC)c2Oc2ccc([N+](=O)[O-])cc2[N+](=O)[O-])SC1=S`, 1.07% (inactive); that for `CCC(C)c1nc2ccsc2c(N2CCOC2=O)c1-c1ccccc1` (stereo not given), -0.011% (inactive).
With `Cc1ccc(Cl)cc1NC(=O)CCC(=O)O` the figure was -0.002% (inactive); with `CCOc1ccc(CCN2C(=S)N([C@@H](Cc3ccccc3)CN3CCC[C@@H]3CN3C(=S)NC[C@@H]3CC(C)C)C[C@@H]2Cc2ccccc2)cc1`, 0.019% (inactive); with `Cc1ccc(S(=O)(=O)Nc2ccc3c(c2)C(=O)N([C@@H](C)CO)C[C@@H](C)[C@@H](CN(C)Cc2ccc(C(=O)Nc4ccccc4N)cc2)O3)cc1`, 0% (inactive).
Take `C=CCn1c(=S)[nH]c2scc(-c3ccco3)c2c1=O`: the % fluorescent cells increase was 0% (inactive).
In the case of `CC(=O)c1ccc2c(c1)OCCOCCOCCOCCOCCO2`, the % fluorescent cells increase was 0.551% (inactive).
The result for `O=C(NCCOc1ccccc1)c1cc([N+](=O)[O-])ccc1N1CCOCC1` reads 0.343% (inactive); that for `Nc1nc(C2CCOCC2)cs1`, 0.017% (inactive); that for `CO[C@H]1CN(C)C(=O)c2ccc(NC(=O)C3CCCCC3)cc2OC[C@H](C)NC[C@@H]1C`, 0.009% (inactive).
With `C[C@@H]1CN([C@@H](C)CO)C(=O)c2cc(NS(=O)(=O)c3cn(C)cn3)ccc2O[C@@H](C)CCCCO[C@H]1CN(C)C(=O)c1ccccc1` the figure was 0% (inactive); with `CCCNC(=O)N1CC2(CN(S(C)(=O)=O)C2)c2c(n(C)c3cc(OC)ccc23)[C@H]1CO`, 0.032% (inactive).
With `NNC(=O)c1sc(-c2ccccc2)cc1N` the figure was 1.36% (inactive).
As for `Nc1c(C(=O)O)cnn1-c1ccc([N+](=O)[O-])cc1`, the % fluorescent cells increase was 0.002% (inactive).
The result for `O=C(Nc1c(F)cccc1F)C(c1ccccc1)c1ccccc1` reads 0.034% (inactive).
The result for `O=C(O)c1ccccc1CSc1nc2ccccc2n1Cc1ccccc1C(=O)O` reads 0.253% (inactive).
With `COc1ccc(OC)c(/C=C/c2ccc3cccc(O)c3n2)c1` the figure was -0.004% (inactive).
As for `CC(OCCN(C)C)C(=O)C12CC3CC(CC(C3)C1)C2` (stereo not given), the % fluorescent cells increase was 0.039% (inactive).
The result for `COc1cccc(CNC(=O)C(Cc2ccccc2)n2cccc2)c1` (stereo not given) reads 0% (inactive); that for `Nc1ccccc1Sc1ccc(C(F)(F)F)cc1[N+](=O)[O-]`, 0% (inactive); that for `Cc1cccc(-c2ccc([C@H]3[C@H](CO)N4CCCCN(C(=O)NC(C)C)C[C@@H]34)cc2)c1`, -0.166% (inactive).
The result for `CCOc1ccccc1N1C(=O)CC(Sc2nccc(C)n2)C1=O` (stereo not given) reads 0% (inactive); that for `CC(=O)NC(c1ccc(Cl)cc1)c1c(O)ccc2ccc(O)cc12` (stereo not given), 0.001% (inactive); that for `N/C(=N\c1nc(CSc2nc3ccccc3s2)cc(=O)[nH]1)Nc1ccc(F)cc1`, 2.21% (inactive).
Take `O=C(CCC(=O)Nc1cccnc1)Nc1cccnc1`: the % fluorescent cells increase is 0.042% (inactive).
For the compound `COc1cc(/C=N/Nc2nc(N3CCCC3)nc(N3CCCC3)n2)ccc1OCc1ccccc1F`, the % fluorescent cells increase was 0.025% (inactive).
The result for `O=c1c2cc(-c3ccccc3)sc2nc2n1N=C(c1ccccc1)CS2` reads 1.14% (inactive).
The result for `COc1ccc2c(c1)c(/C=N/Nc1nc3ccccc3[nH]1)c(C)n2C` reads 3.71% (inactive); that for `CCN(CC)c1ccc(N=Cc2ccc([N+](=O)[O-])o2)cc1`, 0.026% (inactive).
`Cc1[nH]c2ccc(Br)cc2c(=O)c1CN1CCCCCC1`: the % fluorescent cells increase is 0% (inactive).
The result for `CCOCCCNC(=O)C(c1ccc(C)cc1)N(Cc1cccs1)C(=O)c1ccccn1` (stereo not given) reads 0% (inactive).
On to `O=C(NCc1ccccc1)c1ccccc1Br`, for which the % fluorescent cells increase was 3.38% (inactive).
Consider `Cc1ccc(NC(=O)c2cc(N3C(=O)C=CC3=O)ccc2N2CCOCC2)cc1Cl`, for which the % fluorescent cells increase was -0.004% (inactive).
The result for `CCCn1c(SCC(=O)NCc2ccc(C)cc2)n[nH]c1=O` reads -0.007% (inactive); that for `CCOC(=O)c1sc(-c2ccc(F)cc2)cc1NC(=O)Nc1ccccc1OC`, -0.011% (inactive); that for `F[B-](F)(F)c1cnc2ccccc2c1`, 0.137% (inactive).
With `CCOC(=O)c1ccccc1NC(=O)COC(=O)C1CCN(S(=O)(=O)c2ccccc2C(=O)OC)CC1` the figure was 0% (inactive).
With `Cc1noc(C)c1S(=O)(=O)Nc1ccc2c(c1)C(=O)N([C@H](C)CO)C[C@H](C)[C@H](CN(C)C(=O)Nc1ccc(F)cc1)OCCCC[C@H](C)O2` the figure was 0% (inactive); with `CN(Cc1nc(CCc2ccccc2)no1)Cc1cccs1`, 0.295% (inactive).
